Measured values: the supplement of paper PMC10307832

Key:
Assay in all cases: relative viability (nuclei count vs DMSO), 5 days (fraction); higher = more cells survive
EMC-BAC-2 = tested on: EMC-BAC-2
In short: (§1)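 Medians of duplicate plates are given as relative viability. That measure is the nuclei count in treated wells divided by the count in vehicle wells. Counts were taken on 4× images of lung cancer cell lines in 1536-well plates, 5 days after pin-tool dosing the day after seeding with one drug alone or a fixed anchor-drug dose plus five library-drug doses (not always all listed) in √10 steps.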

PC-3 [JPC-3] = tested on: PC-3 [JPC-3]
In short: as §1

HARA = tested on: HARA
In short: as §1

NCI-H3122 = tested on: NCI-H3122
In short: as §1

NCI-H2228 = tested on: NCI-H2228
In short: as §1

NCI-H1792 = tested on: NCI-H1792
In short: as §1

A-427 = tested on: A-427
In short: as §1

SK-MES-1 = tested on: SK-MES-1
In short: as §1

ABC-1 = tested on: ABC-1
In short: as §1

NCI-H322M = tested on: NCI-H322M
In short: as §1

LXF-289 = tested on: LXF-289
In short: as §1

SW 1573 = tested on: SW 1573
In short: as §1

HOP-62 = tested on: HOP-62
In short: as §1

NCI-H727 = tested on: NCI-H727
In short: as §1

NCI-H1993 = tested on: NCI-H1993
In short: as §1

NCI-H1944 = tested on: NCI-H1944
In short: as §1

LK-2 = tested on: LK-2
In short: as §1

NCI-H2009 = tested on: NCI-H2009
In short: as §1

NCI-H596 = tested on: NCI-H596
In short: as §1

NCI-H2170 = tested on: NCI-H2170
In short: as §1

**Q.** Which relative viability (EMC-BAC-2; first compound 0.04 µM) does the source give for `Cc1sc2c(c1C)C(c1ccc(Cl)cc1)=N[C@@H](CC(=O)OC(C)(C)C)c1nnc(C)n1-2` [JQ1] + C[C@@H](Oc1cc(-c2cnn(C3CCNCC3)c2)cnc1N)c1c(Cl)ccc(F)c1Cl [Crizotinib] (partner 1 µM) here?
**A.** 0.737

**Q.** And the relative viability (EMC-BAC-2; first compound 0.1265 µM)?
**A.** 0.651

**Q.** And the relative viability (EMC-BAC-2; first compound 0.4 µM)?
**A.** 0.504

**Q.** And the relative viability (EMC-BAC-2; first compound 1.265 µM)?
**A.** 0.43

**Q.** And the relative viability (EMC-BAC-2; first compound 4 µM)?
**A.** 0.315

**Q.** What about the relative viability (PC-3 [JPC-3]; first compound 0.04 µM) of the same compound?
**A.** 1.06

**Q.** What about the relative viability (PC-3 [JPC-3]; first compound 0.1265 µM) of the same compound?
**A.** 1.03

**Q.** And the relative viability (PC-3 [JPC-3]; first compound 0.4 µM)?
**A.** 0.96

**Q.** And the relative viability (PC-3 [JPC-3]; first compound 1.265 µM)?
**A.** 0.851

**Q.** And the relative viability (PC-3 [JPC-3]; first compound 4 µM)?
**A.** 0.512

**Q.** What about the relative viability (HARA; first compound 0.04 µM) of the same compound?
**A.** 0.945

**Q.** What about the relative viability (HARA; first compound 0.1265 µM) of the same compound?
**A.** 0.714

**Q.** What about the relative viability (HARA; first compound 0.4 µM) of the same compound?
**A.** 0.337

**Q.** What about the relative viability (HARA; first compound 1.265 µM) of the same compound?
**A.** 0.366

**Q.** And the relative viability (HARA; first compound 4 µM)?
**A.** 0.308

**Q.** And the relative viability (NCI-H3122; first compound 0.04 µM)?
**A.** 0.312

**Q.** And the relative viability (NCI-H3122; first compound 0.1265 µM)?
**A.** 0.315

**Q.** And the relative viability (NCI-H3122; first compound 0.4 µM)?
**A.** 0.354

**Q.** And the relative viability (NCI-H3122; first compound 1.265 µM)?
**A.** 0.323

**Q.** What about the relative viability (NCI-H3122; first compound 4 µM) of the same compound?
**A.** 0.413

**Q.** What about the relative viability (NCI-H2228; first compound 0.04 µM) of the same compound?
**A.** 0.455

**Q.** And the relative viability (NCI-H2228; first compound 0.1265 µM)?
**A.** 0.417

**Q.** What about the relative viability (NCI-H2228; first compound 0.4 µM) of the same compound?
**A.** 0.38

**Q.** What about the relative viability (NCI-H2228; first compound 1.265 µM) of the same compound?
**A.** 0.306

**Q.** What about the relative viability (NCI-H2228; first compound 4 µM) of the same compound?
**A.** 0.317

**Q.** And the relative viability (NCI-H1792; first compound 0.04 µM)?
**A.** 0.968

**Q.** What about the relative viability (NCI-H1792; first compound 0.4 µM) of the same compound?
**A.** 0.948

**Q.** And the relative viability (NCI-H1792; first compound 1.265 µM)?
**A.** 0.768

**Q.** And the relative viability (NCI-H1792; first compound 4 µM)?
**A.** 0.644

**Q.** And the relative viability (A-427; first compound 0.04 µM)?
**A.** 0.997

**Q.** What about the relative viability (A-427; first compound 0.1265 µM) of the same compound?
**A.** 0.947

**Q.** And the relative viability (A-427; first compound 0.4 µM)?
**A.** 0.658

**Q.** What about the relative viability (A-427; first compound 1.265 µM) of the same compound?
**A.** 0.691

**Q.** What about the relative viability (A-427; first compound 4 µM) of the same compound?
**A.** 0.516

**Q.** And the relative viability (SK-MES-1; first compound 0.04 µM)?
**A.** 0.873

**Q.** And the relative viability (SK-MES-1; first compound 0.1265 µM)?
**A.** 0.77

**Q.** What about the relative viability (SK-MES-1; first compound 0.4 µM) of the same compound?
**A.** 0.672

**Q.** And the relative viability (SK-MES-1; first compound 1.265 µM)?
**A.** 0.467

**Q.** What about the relative viability (SK-MES-1; first compound 4 µM) of the same compound?
**A.** 0.295

**Q.** What about the relative viability (ABC-1; first compound 0.04 µM) of the same compound?
**A.** 0.844

**Q.** What about the relative viability (ABC-1; first compound 0.1265 µM) of the same compound?
**A.** 1.09

**Q.** What about the relative viability (ABC-1; first compound 0.4 µM) of the same compound?
**A.** 0.988

**Q.** And the relative viability (ABC-1; first compound 1.265 µM)?
**A.** 0.569

**Q.** And the relative viability (ABC-1; first compound 4 µM)?
**A.** 0.276

**Q.** And the relative viability (NCI-H322M; first compound 0.04 µM)?
**A.** 0.83

**Q.** And the relative viability (NCI-H322M; first compound 0.1265 µM)?
**A.** 0.839

**Q.** What about the relative viability (NCI-H322M; first compound 0.4 µM) of the same compound?
**A.** 0.856

**Q.** And the relative viability (NCI-H322M; first compound 1.265 µM)?
**A.** 0.533

**Q.** What about the relative viability (NCI-H322M; first compound 4 µM) of the same compound?
**A.** 0.458

**Q.** And the relative viability (LXF-289; first compound 0.04 µM)?
**A.** 0.84

**Q.** What about the relative viability (LXF-289; first compound 0.1265 µM) of the same compound?
**A.** 0.746

**Q.** What about the relative viability (LXF-289; first compound 0.4 µM) of the same compound?
**A.** 0.743

**Q.** What about the relative viability (LXF-289; first compound 1.265 µM) of the same compound?
**A.** 0.677

**Q.** And the relative viability (LXF-289; first compound 4 µM)?
**A.** 0.479

**Q.** What about the relative viability (SW 1573; first compound 0.04 µM) of the same compound?
**A.** 0.633

**Q.** What about the relative viability (SW 1573; first compound 0.1265 µM) of the same compound?
**A.** 0.741

**Q.** What about the relative viability (SW 1573; first compound 0.4 µM) of the same compound?
**A.** 0.678

**Q.** What about the relative viability (SW 1573; first compound 1.265 µM) of the same compound?
**A.** 0.48

**Q.** What about the relative viability (SW 1573; first compound 4 µM) of the same compound?
**A.** 0.385

**Q.** And the relative viability (HOP-62; first compound 0.04 µM)?
**A.** 0.714

**Q.** And the relative viability (HOP-62; first compound 0.1265 µM)?
**A.** 0.711

**Q.** What about the relative viability (HOP-62; first compound 0.4 µM) of the same compound?
**A.** 0.299

**Q.** What about the relative viability (HOP-62; first compound 1.265 µM) of the same compound?
**A.** 0.119

**Q.** And the relative viability (HOP-62; first compound 4 µM)?
**A.** 0.11

**Q.** And the relative viability (NCI-H727; first compound 0.04 µM)?
**A.** 0.823

**Q.** And the relative viability (NCI-H727; first compound 0.1265 µM)?
**A.** 1.02

**Q.** What about the relative viability (NCI-H727; first compound 0.4 µM) of the same compound?
**A.** 0.631

**Q.** And the relative viability (NCI-H727; first compound 1.265 µM)?
**A.** 0.338

**Q.** What about the relative viability (NCI-H727; first compound 4 µM) of the same compound?
**A.** 0.362

**Q.** And the relative viability (NCI-H1993; first compound 0.04 µM)?
**A.** 0.834

**Q.** And the relative viability (NCI-H1993; first compound 0.1265 µM)?
**A.** 0.774

**Q.** And the relative viability (NCI-H1993; first compound 0.4 µM)?
**A.** 0.728

**Q.** What about the relative viability (NCI-H1993; first compound 1.265 µM) of the same compound?
**A.** 0.799

**Q.** What about the relative viability (NCI-H1993; first compound 4 µM) of the same compound?
**A.** 0.698

**Q.** And the relative viability (NCI-H1944; first compound 0.04 µM)?
**A.** 1.02

**Q.** What about the relative viability (NCI-H1944; first compound 0.1265 µM) of the same compound?
**A.** 0.905

**Q.** What about the relative viability (NCI-H1944; first compound 0.4 µM) of the same compound?
**A.** 0.719

**Q.** What about the relative viability (NCI-H1944; first compound 1.265 µM) of the same compound?
**A.** 0.574

**Q.** What about the relative viability (NCI-H1944; first compound 4 µM) of the same compound?
**A.** 0.447

**Q.** And the relative viability (LK-2; first compound 0.04 µM)?
**A.** 0.208

**Q.** What about the relative viability (LK-2; first compound 0.1265 µM) of the same compound?
**A.** 0.224

**Q.** And the relative viability (LK-2; first compound 0.4 µM)?
**A.** 0.212

**Q.** And the relative viability (LK-2; first compound 1.265 µM)?
**A.** 0.232

**Q.** And the relative viability (LK-2; first compound 4 µM)?
**A.** 0.198

**Q.** What about the relative viability (NCI-H2009; first compound 0.04 µM) of the same compound?
**A.** 0.969

**Q.** And the relative viability (NCI-H2009; first compound 0.1265 µM)?
**A.** 0.627

**Q.** What about the relative viability (NCI-H2009; first compound 0.4 µM) of the same compound?
**A.** 0.572

**Q.** What about the relative viability (NCI-H2009; first compound 1.265 µM) of the same compound?
**A.** 0.301

**Q.** What about the relative viability (NCI-H2009; first compound 4 µM) of the same compound?
**A.** 0.211

**Q.** What about the relative viability (NCI-H596; first compound 0.04 µM) of the same compound?
**A.** 0.977

**Q.** What about the relative viability (NCI-H596; first compound 0.1265 µM) of the same compound?
**A.** 0.85

**Q.** And the relative viability (NCI-H596; first compound 0.4 µM)?
**A.** 0.472

**Q.** And the relative viability (NCI-H596; first compound 1.265 µM)?
**A.** 0.498

**Q.** And the relative viability (NCI-H596; first compound 4 µM)?
**A.** 0.432

**Q.** What about the relative viability (NCI-H2170; first compound 0.04 µM) of the same compound?
**A.** 0.997

**Q.** What about the relative viability (NCI-H2170; first compound 0.1265 µM) of the same compound?
**A.** 1.12

**Q.** What about the relative viability (NCI-H2170; first compound 0.4 µM) of the same compound?
**A.** 0.72

**Q.** And the relative viability (NCI-H2170; first compound 1.265 µM)?
**A.** 0.599

**Q.** And the relative viability (NCI-H2170; first compound 4 µM)?
**A.** 0.517
